# Like-named read-outs stand apart in the source and are kept apart here.
# Key:
# HgmTad2 [1] = assay type: binding, Bacteroides phages (human gut metagenomic libraries)
# ColiTad1 = assay type: binding, Colidexitribacter sp. OB.20; details: native gel combined with ITC
# SBS Tad1 [2] = molecular target: T1, SBS Tad1 (Bacillus phage SBSphiJ7, UniProt P0DW57); assay type: binding, Bacillus cereus phage SBSphiJ7; details: native gel combined with ITC
# SBS Tad1 [3] = molecular target: T1, SBS Tad1; assay: biochemical; assay type: binding, Bacillus cereus phage SBSphiJ7
# CmTad1 = CmTad1 (Clostridioides mangenotii, UniProt P0DW61); assay type: binding, Clostridioides mangenotii prophage; details: for binding to CmTad1 in words: among the CDNs tested
# CmTad1, sequence (P0DW61 whole entry): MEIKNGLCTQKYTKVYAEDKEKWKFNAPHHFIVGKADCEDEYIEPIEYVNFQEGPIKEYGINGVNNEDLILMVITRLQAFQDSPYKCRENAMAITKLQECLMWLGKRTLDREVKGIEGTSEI
# HgmTad2 [4] = assay type: binding, Bacteroides phages (human gut metagenomic libraries); details: HPLC; HgmTad2 of State 1; 40 μM protein, 4 μM ligand
# SPO1 Tad2 = SPO1 Tad2 (Bacillus phage SP01, UniProt B6V311); assay type: binding, Bacillus cereus phage SPO1; details: HPLC; 40 μM protein, 4 μM ligand
# SPO1 Tad2, sequence (B6V311 whole entry, looked up): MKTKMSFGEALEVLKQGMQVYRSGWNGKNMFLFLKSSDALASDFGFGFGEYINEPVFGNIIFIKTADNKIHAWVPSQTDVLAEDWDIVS
# [5] = native PAGE, HgmTad2 of State 1
# T1 sequence (P0DW57 whole entry, looked up): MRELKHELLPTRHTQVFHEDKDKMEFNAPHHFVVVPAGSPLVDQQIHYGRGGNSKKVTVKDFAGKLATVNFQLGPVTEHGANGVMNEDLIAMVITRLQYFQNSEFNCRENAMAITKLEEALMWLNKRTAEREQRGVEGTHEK
smiles,measurement,setting,value
Nc1ncnc2c1ncn2[C@@H]1O[C@@H]2COP(=O)(O)OP(=O)(O)OC[C@H]3OC(O[C@@H]1[C@@H]2O)[C@H](O)[C@@H]3O [1''-2' gcADPR],native gel shift of HgmTad2 upon adding ligand,"HgmTad2 [1]; native gel, purified HgmTad2 in all the three states",shift
"Nc1nc2c(ncn2[C@@H]2O[C@@H]3COP(=O)(O)O[C@H]4[C@@H](O)[C@H](n5cnc6c(N)ncnc65)O[C@@H]4COP(=O)(O)O[C@@H]2[C@@H]3O)c(=O)[nH]1 [2',3'-cGAMP]",binding affinity to ColiTad1 in words,ColiTad1,high affinity
"Nc1nc2c(ncn2[C@@H]2O[C@@H]3COP(=O)(O)O[C@@H]4[C@H](O)[C@@H](COP(=O)(O)O[C@H]3[C@H]2O)O[C@H]4n2cnc3c(N)ncnc32)c(=O)[nH]1 [3',2'-cGAMP]",binding affinity to SBS Tad1 in words,SBS Tad1 [2],low affinity
same,binding affinity to ColiTad1 in words,ColiTad1,low affinity
"Nc1nc2c(ncn2[C@@H]2O[C@@H]3COP(=O)(O)O[C@H]4[C@@H](O)[C@H](n5cnc6c(N)ncnc65)O[C@@H]4COP(=O)(O)O[C@H]3[C@H]2O)c(=O)[nH]1 [3',3'-cGAMP]",Kd,SBS Tad1 [3],48.7 nM
same,binding to CmTad1 in words,CmTad1,weak binding
same,binding affinity to ColiTad1 in words,ColiTad1,low affinity
same,native gel shift of HgmTad2 upon adding ligand,HgmTad2 [1]; [5],significant shift
same,depletion of ligand after incubation with HgmTad2,HgmTad2 [4],depletes
same,depletion of ligand after incubation with SPO1 Tad2,SPO1 Tad2,does not deplete
Nc1nc2c(ncn2[C@@H]2O[C@@H]3COP(=O)(O)O[C@H]4[C@@H](O)[C@H](n5cnc6c(N)ncnc65)O[C@@H]4COP(=O)(O)O[C@H]4[C@@H](O)[C@H](n5cnc6c(N)ncnc65)O[C@@H]4COP(=O)(O)O[C@H]3[C@H]2O)c(=O)[nH]1 [cAAG],native gel shift of CmTad1 upon adding ligand,"CmTad1; native PAGE, protein 20 μM",shift
"Nc1nc2c(ncn2[C@@H]2O[C@@H]3COP(=O)(O)O[C@H]4[C@@H](O)[C@H](n5cnc6c(=O)[nH]c(N)nc65)O[C@@H]4COP(=O)(O)O[C@H]3[C@H]2O)c(=O)[nH]1 [cGG, 3’,3’-cyclic di-GMP]",native gel shift of HgmTad2 upon adding ligand,HgmTad2 [1]; [5],significant shift
Nc1ncnc2c1ncn2[C@@H]1O[C@@H]2COP(=O)(O)O[C@H]3[C@@H](O)[C@H](n4ccc(=O)[nH]c4=O)O[C@@H]3COP(=O)(O)O[C@H]2[C@H]1O [cUA],Kd,SBS Tad1 [3],53.9 nM
same,binding to CmTad1 in words,CmTad1,weak binding
Nc1nc2c(ncn2[C@@H]2O[C@@H]3COP(=O)(O)O[C@H]4[C@@H](O)[C@H](n5ccc(=O)[nH]c5=O)O[C@@H]4COP(=O)(O)O[C@H]3[C@H]2O)c(=O)[nH]1 [cUG],native gel shift of HgmTad2 upon adding ligand,HgmTad2 [1]; [5],significant shift

# From article PMC10680739 (bioRxiv, 2023)
